The values below come from ChEMBL document CHEMBL1158171, “Bioactivities of a series of phosphodiesterase type 5 (PDE-5) inhibitors as modelled by MIA-QSAR” (Eur J Med Chem, 2008).

Tested on in one series: not listed separately
The series can be described thus: Octanol-water partition coefficient, log P of the compound. The format is physicochemical.
Consider `CCN1C(=O)c2c(nc(Cc3ccccc3)n2Cc2ccc(Cl)cc2)N2C1=N[C@@H]1CCC[C@@H]12`, for which the logP (usually the decadic logarithm of the partition coefficient of the neutral form, usually between octanol and water) was 6.03.
Same read-out and setting: for `CCSc1nc2c(n1Cc1ccc(O)cc1)C(=O)N(CC)C1=N[C@@H]3CCC[C@@H]3N12` the value was 4.41.
`CCN1C(=O)c2c(nc(OC)n2Cc2ccc(OC)c(C#N)c2)N2C[C@@H](Cc3ccccc3)N=C12` had a logP of 5.1.
`CCN1C(=O)c2c(nc(OC)n2Cc2ccc(OC)c(Cl)c2)N2C1=N[C@@H]1CCC[C@@H]12` came in with a logP of 4.32.
Compound `CCN1C(=O)c2c(nc(C(=O)OC)n2Cc2ccc(OC)cc2)N2C1=N[C@@H]1CCC[C@@H]12` gave a logP of 3.38.
Consider `CCSc1nc2c(n1Cc1ccc(OC)cc1)C(=O)N(CC)C1=N[C@@H]3CCC[C@@H]3N12`, for which the lipophilicity (logP) was 4.67.
Regarding `CCN1C(=O)c2c(nc(C(F)(F)F)n2Cc2ccc(O)cc2)N2C1=N[C@@H]1CCC[C@@H]12`, the logP was found to be 4.22.
The same measure, in the same setting: as for `CCN1C(=O)c2c(nc(C(N)=O)n2Cc2ccc(O)c(Br)c2)N2C1=N[C@@H]1CCC[C@@H]12`, the figure is 3.03.
For `CCN1C(=O)c2c(nc(Cc3ccccc3)n2Cc2ccc3c(c2)OCO3)N2C1=N[C@@H]1CCC[C@@H]12`, the logP was 5.25.
On the same count and under the same terms, as for `CCN1C(=O)c2c(nc(OC)n2Cc2ccc(O)c(Br)c2)N2C1=N[C@@H]1CCC[C@@H]12`, the figure is 4.33.
Take `CCN1C(=O)c2c(nc(OC)n2Cc2ccc(OC)c(Br)c2)N2C1=N[C@@H]1CCC[C@@H]12`: the logP worked out at 4.59.
With `CCN1C(=O)c2c(nc(OC)n2Cc2ccc(O)c(Br)c2)N2C[C@@H](Cc3ccccc3)N=C12`, the logP amounted to 5.63.
On the same count and under the same terms, for `CCN1C(=O)c2c(nc(C#Cc3ccccc3)n2Cc2ccc(Cl)cc2)N2C1=N[C@@H]1CCC[C@@H]12` the value was 6.19.
Compound `CCN1C(=O)c2c(nc(Cc3ccccc3)n2Cc2ccc(OC)c(Cl)c2)N2C1=N[C@@H]1CCC[C@@H]12` showed a logP of 5.9.
On the same count and under the same terms, for `CCOc1nc2c(n1Cc1ccc(OC)c(Cl)c1)C(=O)N(CC)C1=N[C@@H]3CCC[C@@H]3N12` the value was 4.66; for `CCN1C(=O)c2c(nc(OC)n2Cc2ccc(O)c(Cl)c2)N2C1=N[C@@H]1CCC[C@@H]12`, 4.06; for `CCN1C(=O)c2c(nc(C#N)n2Cc2ccc(OC)cc2)N2C1=N[C@@H]1CCC[C@@H]12`, 3.59.
In turn, `CCN1C(=O)c2c(nc(C#Cc3ccccc3)n2Cc2ccc(OC)cc2)N2C1=N[C@@H]1CCC[C@@H]12` displayed a logP of 5.5.
`CCN1C(=O)c2c(nc(C(=O)NC)n2Cc2ccc(O)c(Cl)c2)N2C1=N[C@@H]1CCC[C@@H]12` displayed a logP of 3.
In turn, `CCN1C(=O)c2c(ncn2Cc2ccc(OC)c(Cl)c2)N2C1=N[C@@H]1CCC[C@@H]12` returned a logP of 3.47.
In turn, `CCN1C(=O)c2c(nc(C#Cc3ccccc3)n2Cc2ccc(O)cc2)N2C1=N[C@@H]1CCC[C@@H]12` had a logP of 5.24.
For the compound `CCN1C(=O)c2c(nc(OCc3ccccc3)n2Cc2ccc(O)c(Cl)c2)N2C[C@@H](Cc3ccccc3)N=C12`, the logP was 7.09.
On the same count and under the same terms, as for `CCN1C(=O)c2c(nc(C(N)=O)n2Cc2ccc(O)c(Cl)c2)N2C[C@@H](Cc3ccccc3)N=C12`, the figure is 4.06; as for `CCN1C(=O)c2c(nc(C(N)=O)n2Cc2ccc(O)c(Cl)c2)N2C1=N[C@@H]1CCC[C@@H]12`, 2.76; as for `CCN1C(=O)c2c(nc(OC)n2Cc2ccc(O)c(Cl)c2)N2C[C@@H](Cc3ccccc3)N=C12`, 5.36.
`CCN1C(=O)c2c(nc(C(N)=O)n2Cc2ccc(OC)c(Cl)c2)N2C[C@@H](Cc3ccccc3)N=C12` yielded a logP of 4.32.
On to `CCN1C(=O)c2c(ncn2Cc2ccc(OC)c(Br)c2)N2C1=N[C@@H]1CCC[C@@H]12`, for which the logP worked out at 3.74.
The compound `CCN1C(=O)c2c(nc(C(N)=O)n2Cc2ccc(O)cc2)N2C1=N[C@@H]1CCC[C@@H]12` returned a logP of 2.2.
The compound `CCN1C(=O)c2c(nc(Cc3ccccc3)n2Cc2ccccc2)N2C1=N[C@@H]1CCC[C@@H]12` showed a logP of 5.47.
On to `CCN1C(=O)c2c(nc(OC)n2Cc2ccc(OC)c(Br)c2)N2C[C@@H](Cc3ccccc3)N=C12`, for which the logP came to 5.89.
Regarding `CCN1C(=O)c2c(nc(C(N)=O)n2Cc2ccc(OC)cc2)N2C1=N[C@@H]1CCC[C@@H]12`, the logP is 2.47.
For `CCOc1nc2c(n1Cc1ccc(O)c(Cl)c1)C(=O)N(CC)C1=N[C@@H]3CCC[C@@H]3N12`, the logP is 4.4.
In turn, `CCN1C(=O)c2c(nc(C(=O)NC)n2Cc2ccc(OC)c(Cl)c2)N2C1=N[C@@H]1CCC[C@@H]12` gave a logP of 3.26.
On the same count and under the same terms, for `CCOc1nc2c(n1Cc1ccc(OC)cc1)C(=O)N(CC)C1=N[C@@H]3CCC[C@@H]3N12` the value was 4.1.
`CCN1C(=O)c2c(nc(Cc3ccccc3)n2Cc2ccc(C)cc2)N2C1=N[C@@H]1CCC[C@@H]12` returned a logP of 5.95.
Turning to `CCN1C(=O)c2c(nc(C(N)=O)n2Cc2ccc(OC)c(Br)c2)N2C1=N[C@@H]1CCC[C@@H]12`, the logP was determined as 3.3.
The compound `CCOc1nc2c(n1Cc1ccc(OC)c(Br)c1)C(=O)N(CC)C1=N[C@@H]3CCC[C@@H]3N12` showed a logP of 4.93.

Another series has as its target cGMP-specific 3',5'-cyclic phosphodiesterase (Homo sapiens, UniProt O76074).
Consider `CCN1C(=O)C2C(N=CN2Cc2ccc(O)c(Br)c2)N2C1=N[C@@H]1CCC[C@@H]12` (some centres undefined), for which half-maximal inhibition (IC50) was put at 6.31 nM. This counts as single-digit nanomolar.
On to `CCN1C(=O)C2C(N=C(OC)N2Cc2ccc(OC)c(Cl)c2)N2C[C@@H](Cc3ccccc3)N=C12` (some centres undefined), for which inhibition was half-maximal at 1.58 nM (IC50).
